Publication PMC10914731, “Homo-BacPROTAC-induced degradation of ClpC1 as a strategy against drug-resistant mycobacteria” (Nature Communications, 2024)
Converted amounts (≈) assume the structure as drawn. “And” between values parts separate entries of the source, which are not always exact repeats. Identical values can stand only once. Like-named read-outs stand apart in the source and are kept apart here. Where a SMILES comes first, the peptide text is derived from it. [ ]: non-standard residue; d: D form. NMeLeu(5-OH,4R) = CN[C@@H](C[C@@H](C)CO)C(=O)O; Phe(βR-OMe) = CO[C@H](c1ccccc1)[C@H](N)C(=O)O; Trp(1-Me) = Cn1cc(C[C@H](N)C(=O)O)c2ccccc21; NMeL = CN[C@@H](CC(C)C)C(=O)O; Pra = C#CC[C@H](N)C(=O)O

Key:
[1] = target: ClpC1 NTD protein (M. tuberculosis) (Mycobacterium tuberculosis, UniProt P9WPC9); test: biochemical; format: binding; conditions: SPR
ClpC1 NTD protein (M. tuberculosis), sequence (P9WPC9 1-156, looked up, natural form): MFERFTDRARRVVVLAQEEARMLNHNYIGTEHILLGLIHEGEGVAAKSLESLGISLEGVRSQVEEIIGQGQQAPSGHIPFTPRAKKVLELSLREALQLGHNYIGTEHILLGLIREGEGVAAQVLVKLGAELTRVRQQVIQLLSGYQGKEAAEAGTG

[2] = in vitro; conditions: human
Procedure, shortened: (§1)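 Permeability across Caco-2 monolayers was measured in both directions, apical-to-basolateral and basolateral-to-apical, in 10^-6 cm s-1. Efflux ratio = P(B−A)/P(A−B). Intrinsic permeability is the mean of P(A−B) and P(B−A).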

[3] = test system: Caco-2 monolayers; test: in vitro
Procedure, shortened: as §1

[4] = format: in vitro ADME, Mice
Procedure, shortened: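 1 µmol/l cpd + 0.5 mg/ml microsomes, Tris-HCl 100 mM pH 7.5 / MgCl2 6.5 mM / NADPH 1 mM, 37 °C. Timed acetonitrile quench, spin, supernatant by HPLC-MS/MS. t1/2 from first-order decay → clearance %Qh, well-stirred model.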

[5] = test system: Msm 700084; test: microbe, parasite or virus in culture; format: cell-based
[6] = test system: Mtb (moxR) FNDR-M1; test: microbe, parasite or virus in culture; format: cell-based
[7] = test system: Mtb (katG del) ATCC 35822; test: microbe, parasite or virus in culture; format: cell-based; conditions: Mycobacterium tuberculosis
[8] = test system: Mtb # 8673; test: microbe, parasite or virus in culture; format: cell-based
[9] = test system: Staphylococcus aureus; test: MIC ESKAPES panel, Staphylococcus aureus; format: cell-based
Method: (§2) Minimum inhibitory concentration (MIC) against ESKAPES panel of Gram positive and Gram negative pathogens (Enterococcus faecium, Staphylococcus aureus, Klebsiella pneumoniae, Acinetobacter baumannii, Pseudomonas aeruginosa, Enterobacter cloacae and Salmonella typhimurium [ESKAPES panel]) were determined at the FNDR by the standard broth dilution method [CLSI, M100]. […] Mueller Hinton broth (MHB) medium was used to grow ESKAPES panel strains. The individual cultures were added as 200 μL (inoculum of 3–7 × 10^5 cfu/ml) to the respective assay plates in each well to all columns, except the media control (200 μL of medium). […] The assay plates were incubated at 37 °C, and the results were noted on the 2nd day as turbidometric readout. The clear wells indicated inhibition of growth, while the turbid wells indicated uninhibited growth.

[10] = test system: Enterobacter cloacae; test: MIC ESKAPES panel, Enterobacter cloacae; format: cell-based
Method: as §2

[11] = test system: Mycobacterium fortuitum; test: microbe, parasite or virus in culture; format: cell-based
[12] = test system: Mycobacterium intracellulare; test: microbe, parasite or virus in culture; format: cell-based
[13] = test system: Msm #607; test: Minimum bactericidal concentration (MBC), Msm #607; format: cell-based, Mycobacterium smegmatis; conditions: Mycolicibacterium smegmatis
[14] = target: His6-tagged ClpC1-NTD substrate, M. smegmatis ClpC1P1P2 (UniProt A0R574+P9WPC9); test: biochemical; format: biochemical; conditions: for % Response: ClpC1-NTD/ClpP1P2 peak area normalized to DMSO, well replicates; for DC50: Msm
His6-tagged ClpC1-NTD substrate, M. smegmatis ClpC1P1P2, sequence (P9WPC9 1-156, looked up, natural form): as above
His6-tagged ClpC1-NTD substrate, M. smegmatis ClpC1P1P2, sequence (A0R574 whole entry): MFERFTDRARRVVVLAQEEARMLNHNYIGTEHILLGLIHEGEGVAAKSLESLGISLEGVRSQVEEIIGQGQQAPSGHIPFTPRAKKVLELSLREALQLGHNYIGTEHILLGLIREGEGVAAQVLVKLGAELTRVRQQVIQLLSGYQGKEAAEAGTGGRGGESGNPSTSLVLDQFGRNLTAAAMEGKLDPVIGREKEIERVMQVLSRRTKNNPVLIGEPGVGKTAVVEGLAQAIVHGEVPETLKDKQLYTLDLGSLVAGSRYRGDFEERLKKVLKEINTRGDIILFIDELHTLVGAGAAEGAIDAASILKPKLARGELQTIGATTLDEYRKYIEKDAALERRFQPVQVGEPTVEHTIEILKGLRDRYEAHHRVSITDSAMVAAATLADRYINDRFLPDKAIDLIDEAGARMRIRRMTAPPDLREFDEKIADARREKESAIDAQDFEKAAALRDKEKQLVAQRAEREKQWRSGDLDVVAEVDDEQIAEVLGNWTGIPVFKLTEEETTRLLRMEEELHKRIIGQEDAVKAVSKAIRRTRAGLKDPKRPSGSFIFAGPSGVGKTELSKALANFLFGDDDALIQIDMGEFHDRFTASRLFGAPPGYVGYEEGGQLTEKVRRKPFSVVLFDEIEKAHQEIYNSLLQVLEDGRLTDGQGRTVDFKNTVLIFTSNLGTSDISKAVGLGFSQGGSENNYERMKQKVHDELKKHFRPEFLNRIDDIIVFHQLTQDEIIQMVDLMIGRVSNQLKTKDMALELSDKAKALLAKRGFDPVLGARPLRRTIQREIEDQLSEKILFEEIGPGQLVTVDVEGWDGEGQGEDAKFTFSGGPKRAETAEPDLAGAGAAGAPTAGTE

[15] = test system: Mtb H37Rv in THP-1 macrophages; test: Intracellular MIC assay in THP-1 macrophages; format: cell-based, Mycobacterium tuberculosis; parameters: Emax: unit not given here
[16] = test system: replicating Mtb H37Rv cells; test: Resazurin growth assay, replicating Mtb H37Rv (Supplementary Fig. 2); format: cell-based, Mycobacterium tuberculosis; conditions: three replicate columns
[17] = Experiment 2, three replicate columns

C#CC[C@@H]1NC(=O)[C@H](CC(C)C)N(C)C(=O)[C@H](C(C)C)NC(=O)[C@H]([C@H](OC)c2ccccc2)NC(=O)[C@H](C)NC(=O)[C@H](C[C@@H](C)CO)N(C)C(=O)[C@H](Cc2cn(C)c3ccccc23)NC1=O [Compound 10] (cyclo(A[Phe(βR-OMe)]V[NMeL][Pra][Trp(1-Me)][NMeLeu(5-OH,4R)]))
Kd ([1]; individual measurements (source data), read-out: KD ClpC1-NTD): 4.65 nM and 4.5 nM and 3.27 nM and 3.4 nM
Kd ([1]; read-out: ClpC1-NTD KD Mean ± SD): 4 ± 0.7 nM
Papp B→A ([2]; Caco-2, CACO permeability PEBA, basolateral to apical): 19 ×10⁻⁶ cm/s
Papp A→B ([2]; Caco-2, Caco-2 permeability P (A-B), apical to basolateral): < 0.1 ×10⁻⁶ cm/s
CACO permeability PEBA ([3]; basolateral to apical): 14 ×10⁻⁶ cm/s
Caco-2 Int. Perm ([3]; mean value of P(A−B) and P(B−A)): 7.1 10-6 cm s-1
Microsomal Stability Mouse QH ([4]; Mouse): >88.400%
Microsomal Stability Mice ([4]; clearance in microsomes): > 88 %Qh
MIC ([5]; Mycolicibacterium smegmatis, 700084, single determinations, read-out: Msm 700084 MIC): 25 µM (≈ 22.8 µg/mL)
MIC ([5]; Mycolicibacterium smegmatis, 700084, read-out: MIC Msm 700084): 25 µM (≈ 22.8 µg/mL)
MIC ([6]; M. tuberculosis FNDR-M1, single well replicates): 1.56 µM (≈ 1.42 µg/mL)
MIC ([6]; Mycobacterium tuberculosis, M. tuberculosis FNDR-M1, single well replicates): 1.56 µM (≈ 1.42 µg/mL)
MIC ([6]; Mycobacterium tuberculosis, Mtb (moxR) FNDR-M1, mean ± SD, n = 3 well replicates): 1.6 µM (≈ 1.46 µg/mL)
MIC ([7]; ATCC35822, M. tuberculosis ATCC 35822, single well replicates): 1.56 µM (≈ 1.42 µg/mL)
MIC ([7]; ATCC35822, Mtb (katG del) ATCC 35822, mean ± SD, n = 3 well replicates): 1.6 µM (≈ 1.46 µg/mL)
MIC ([8]; Mycobacterium tuberculosis, mean, n = 2 well replicates): 0.4 µM and 0.4 µg/mL
MIC ([8]; Mycobacterium tuberculosis, single well replicates): 0.39 µM and 0.36 µg/mL
MIC ([8]; single well replicates): 0.39 µM (≈ 0.356 µg/mL)
MIC Mtb # 8673 ([8]; single well replicates): 0.36 µg/mL (≈ 0.394 µM)
MIC ([9]; Gram-Positive Bacteria, replicates 1-3): >50 µM
MIC ([9]; Staphylococcus aureus, Gram positive, n = 3 well replicates): > 50 µM
MIC ([9]; Staphylococcus aureus, Gram-Positive Bacteria, replicates 1-3): > 45.6 µg/mL
MIC ([10]; Enterobacter cloacae, Gram negative, n = 3 well replicates): > 50 µM
MIC ([10]; Enterobacter cloacae, Gram-Negative Bacteria, replicates 1-3): > 45.6 µg/mL
MIC ([10]; Gram-Negative Bacteria, replicates 1-3): >50 µM
MIC ([11]; Experiment 1, read-out: MIC Mycobacterium fortuitum): 12.5 µM
MIC (µg/ml) Mycobacterium fortuitum [11, 17]: 11.41 µg/mL (≈ 12.5 µM)
MIC ([11]; Experiment 2, three replicate columns, read-out: MIC (µM) Mycobacterium fortuitum): 12.5 µM
MIC ([11]; Mycolicibacterium fortuitum, Experiment 1, read-out: MIC Mycobacterium fortuitum): 11.4 µg/mL
MIC ([11]; Mycolicibacterium fortuitum, Experiment 2, three replicate columns, read-out: MIC (µM) Mycobacterium fortuitum): 12.5 µM
MIC ([11]; Mycolicibacterium fortuitum, Experiment 2, three replicate columns, read-out: MIC (µg/ml) Mycobacterium fortuitum): 11.4 µg/mL
MIC ([11]; Mycolicibacterium fortuitum, mean ± SD, read-out: MIC Mycobacterium fortuitum): 12.5 µM
MIC ([12]; Experiment 1, read-out: MIC Mycobacterium intracellulare): 12.5 µM
MIC (µg/ml) Mycobacterium intracellulare [12, 17]: 11.41 µg/mL (≈ 12.5 µM)
MIC ([12]; Experiment 2, three replicate columns, read-out: MIC (µM) Mycobacterium intracellulare): 12.5 µM
MIC ([12]; Mycobacterium intracellulare, Experiment 1, read-out: MIC Mycobacterium intracellulare): 11.4 µg/mL
MIC ([12]; Mycobacterium intracellulare, Experiment 2, three replicate columns, read-out: MIC (µM) Mycobacterium intracellulare): 12.5 µM
MIC ([12]; Mycobacterium intracellulare, Experiment 2, three replicate columns, read-out: MIC (µg/ml) Mycobacterium intracellulare): 11.4 µg/mL
MIC ([12]; Mycobacterium intracellulare, mean ± SD, read-out: MIC Mycobacterium intracellulare): 12.5 µM
MBC ([13]; ATCC607, read-out: MBC (from Set 3) Msm ATCC 607): > 45.6 µg/mL and > 50 µM
MBC ([13]; read-out: MBC Msm #607, individual example): > 50 µM and > 45.7 µg/mL
% Response ([14]; 0.4 µM): 107.165% and 105.713% and 105.534% and 109.793% and 112.635% and 106.598% and 107.262% and 106.323% and 113.228%
% Response ([14]; 33.3 µM): 86.4131% and 86.1435% and 98.0091% and 93.8962% and 86.1584% and 100.044% and 99.6955% and 103.875% and 103.346%
% Response ([14]; 100.0 µM): 86.569% and 107.836% and 89.4261% and 92.9238% and 99.5573% and 96.5131% and 88.7968% and 92.196% and 104.007%
DC50 ([14]; Measurement 1-6, read-out: DC50, single measurements): > 100000 nM
DC50 ([14]; mean of the measurements, read-out: DC50, Mean): > 100000 nM
degradation of the His6-tagged ClpC1-NTD substrate ([14]; cell-free, result in words): did not cause any degradation
Emax [15]: 0.19
Supplementary Figure 2 dose-response value, replicating H37Rv cells ([16]; Conc. 0.0488281 µM): 96.6607 and 85.0023 and 97.6783
Supplementary Figure 2 dose-response value, replicating H37Rv cells ([16]; Conc. 0.0976562 µM): 91.646 and 99.7213 and 83.381
Supplementary Figure 2 dose-response value, replicating H37Rv cells ([16]; Conc. 0.195312 µM): 93.9637 and 88.7594 and 93.2053
Supplementary Figure 2 dose-response value, replicating H37Rv cells ([16]; Conc. 0.390625 µM): 95.6392 and 103.405 and 93.9985
Supplementary Figure 2 dose-response value, replicating H37Rv cells ([16]; Conc. 0.78125 µM): 94.5519 and 83.8686 and 95.6043
Supplementary Figure 2 dose-response value, replicating H37Rv cells ([16]; Conc. 1.5625 µM): 94.1959 and 100.812 and 95.4766
Supplementary Figure 2 dose-response value, replicating H37Rv cells ([16]; Conc. 3.125 µM): 91.4989 and 87.2697 and 84.1472
Supplementary Figure 2 dose-response value, replicating H37Rv cells ([16]; Conc. 6.25 µM): 90.8682 and 96.9509 and 92.2612
Supplementary Figure 2 dose-response value, replicating H37Rv cells ([16]; Conc. 25 µM): 58.5243 and 57.8085 and 53.4206
Supplementary Figure 2 dose-response value, replicating H37Rv cells ([16]; Conc. 50 µM): 10.7146 and 27.4379 and 10.7068
Supplementary Figure 2 dose-response value, replicating H37Rv cells ([16]; Conc. 100 µM): 10.7533 and 7.29 and 10.5908
